From ChEMBL document CHEMBL1128246, “Synthesis and structure-activity relationships of oxamic acid and acetic acid derivatives related to L-thyronine” (J Med Chem, 1995) come the findings set out here.

In one experiment the test system is Rattus norvegicus. Briefly: Percent change in serum HDL level was determined in hypercholesterolemic rats at 100 ug/Kg upon peroral administration. The format is functional.
Settings: not given
For the compound `N[C@@H](Cc1cc(I)c(Oc2ccc(O)c(I)c2)c(I)c1)C(=O)O` [LIOTHYRONINE], the Change is on record as -8%.

The target of another experiment is T1, Thyroid hormone receptor beta (Rattus norvegicus, UniProt P18113).
T1 sequence (P18113 whole entry): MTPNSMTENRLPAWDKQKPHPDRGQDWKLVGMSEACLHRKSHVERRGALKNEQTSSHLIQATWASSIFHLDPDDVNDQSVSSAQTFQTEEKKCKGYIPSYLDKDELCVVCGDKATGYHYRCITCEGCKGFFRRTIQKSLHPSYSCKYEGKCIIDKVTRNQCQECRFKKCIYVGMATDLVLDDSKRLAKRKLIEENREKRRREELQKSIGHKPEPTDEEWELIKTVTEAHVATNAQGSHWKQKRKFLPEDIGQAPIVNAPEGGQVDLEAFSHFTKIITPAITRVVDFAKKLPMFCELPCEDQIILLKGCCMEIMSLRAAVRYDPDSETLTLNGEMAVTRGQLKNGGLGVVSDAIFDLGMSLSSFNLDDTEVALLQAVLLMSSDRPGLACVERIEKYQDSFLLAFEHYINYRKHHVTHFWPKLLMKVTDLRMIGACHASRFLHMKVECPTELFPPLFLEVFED
The experiment in a line: Ability to inhibit the bound [125I]L-T3 rat liver Nuclear L-triiodothyronine receptor is determined in vitro.
Settings: not given
By IC50 is commonly meant the concentration at which inhibition is half-maximal. Read a high IC50 as lower potency. Regarding `CC(C)c1cc(Oc2c(I)cc(NCC(=O)O)cc2I)ccc1O`, the IC50 is 0.00031 µM.
On the same count and under the same terms, as for `CC(C)c1cc(Oc2c(Cl)cc(NC(Cc3ccccc3)C(=O)O)cc2Cl)ccc1O` (stereo unspecified), the figure is 0.058 µM; as for `Cc1cc(NC(C)C(=O)O)cc(C)c1Oc1ccc(O)c(C(C)C)c1` (stereo unspecified), 0.55 µM; as for `CC(C)c1cc(Oc2c(Br)cc(SCC(=O)O)cc2Br)ccc1O`, 0.0015 µM.
Same read-out and setting: with `CC(C)c1cc(Oc2c(Cl)cc(NCC(=O)O)cc2Cl)ccc1O` the figure was 0.0011 µM; with `CCOC(=O)C(=O)Nc1cc(C)c(Oc2ccc(OC)c(C(O)c3ccc(F)cc3)c2)c(C)c1` (stereo unspecified), 0.034 µM.
Same read-out and setting: as for `Cc1cc(CCC(=O)O)cc(C)c1Oc1ccc(O)c(C(C)C)c1`, the figure is over 5 µM.
Regarding `CC(C)c1cc(Oc2c(Br)cc(CCC(=O)O)cc2Br)ccc1O`, half-maximal inhibition (IC50) required 0.00011 µM.
Same read-out and setting: as for `Cc1cc(SCC(=O)O)cc(C)c1Oc1ccc(O)c(C(C)C)c1`, the figure is 0.0035 µM; as for `CC(Nc1cc(Cl)c(Oc2ccc(O)c(C(C)C)c2)c(Cl)c1)C(=O)O` (stereo unspecified), 0.048 µM.
On the same count and under the same terms, as for `CC(C)c1cc(Oc2c(Br)cc(OCC(=O)O)cc2Br)ccc1O`, the figure is 0.0001 µM; as for `Cc1cc(NC(Cc2ccccc2)C(=O)O)cc(C)c1Oc1ccc(O)c(C(C)C)c1` (stereo unspecified), 0.4 µM; as for `Cc1cc(NCC(=O)O)cc(C)c1Oc1ccc(O)c(C(C)C)c1`, 0.012 µM.

The next experiment concerns Rattus norvegicus. Briefly: Percent change in serum HDL level was determined in hypercholesterolemic rats at 25 ug/Kg upon peroral administration. The experiment is classed as functional.
Settings: not given
Regarding `Cc1cc(NC(=O)C(=O)O)cc(C)c1Oc1ccc(O)c(C(C)C)c1`, the Change is given as -5%.

The next experiment deals with Rattus norvegicus. The experiment in a line: Percent change in serum HDL level was determined in hypercholesterolemic rats at 10 ug/Kg upon peroral administration.
Settings: not given
The format is functional.
For `CCOC(=O)C(=O)Nc1cc(C)c(Oc2ccc(O)c(C(O)c3ccc(F)cc3)c2)c(C)c1` (stereo in doubt; 23a) [AXITIROME], the Change is given as 0%.

The next experiment deals with Rattus norvegicus. The experiment in a line: Minimum effective dose was determined in hypercholesterolemic rats for lowering total cholesterol level compared to control upon peroral administration. The experiment is classed as functional. The note with it: po, read-out: MED.
On to `CC(C)c1cc(Oc2c(Cl)cc(NC(=O)C(=O)O)cc2Cl)ccc1O`, for which the minimal effective dose was determined as 0.0125 mg/kg.
Turning to `Cc1cc(NC(=O)C(=O)O)cc(C)c1Oc1ccc(O)c(C(C)C)c1`, the minimal effective dose came to 0.01 mg/kg.
Still for that read-out and setting: with `CCOC(=O)C(=O)Nc1cc(C)c(Oc2ccc(O)c(C(O)c3ccc(F)cc3)c2)c(C)c1` (stereo in doubt; 23a) [AXITIROME] the figure was under 0.001 mg/kg; with `N[C@@H](Cc1cc(I)c(Oc2ccc(O)c(I)c2)c(I)c1)C(=O)O` [LIOTHYRONINE], 0.025 mg/kg.

The next experiment has as its system Rattus norvegicus. The experiment in a line: Effective dose was determined in hypercholesterolemic rats for lowering total serum cholesterol compared to control upon peroral administration. The note with it: po. The format is functional.
For orientation: ED50 means the dose that gives a 50% effect, or the effect in half of the subjects. A low value points to greater potency. `CC(C)c1cc(Oc2c(Cl)cc(NC(=O)C(=O)O)cc2Cl)ccc1O` had an ED50 of 0.05 mg/kg.
`Cc1cc(NC(=O)C(=O)O)cc(C)c1Oc1ccc(O)c(C(C)C)c1` displayed an ED50 of 0.02 mg/kg.
On the same count and under the same terms, as for `CCOC(=O)C(=O)Nc1cc(C)c(Oc2ccc(O)c(C(O)c3ccc(F)cc3)c2)c(C)c1` (stereo in doubt; 23a) [AXITIROME], the figure is 0.005 mg/kg; as for `N[C@@H](Cc1cc(I)c(Oc2ccc(O)c(I)c2)c(I)c1)C(=O)O` [LIOTHYRONINE], 0.1 mg/kg.

Another experiment concerns Rattus norvegicus. Briefly: Percent change in serum LDL level was determined in hypercholesterolemic rats at 25 ug/Kg upon peroral administration. The format is functional.
Settings: not given
As for `Cc1cc(NC(=O)C(=O)O)cc(C)c1Oc1ccc(O)c(C(C)C)c1`, the Change is given as -67%.

A further experiment relates to Rattus norvegicus. The experiment in a line: Dose which was not showing any cardiac effect in normal cholesterol rats upon peroral administration. The format is functional.
Settings: not given
Compound `CC(C)c1cc(Oc2c(Cl)cc(NC(=O)C(=O)O)cc2Cl)ccc1O` returned a Dose of 10 mg/kg.
On the same count and under the same terms, with `Cc1cc(NC(=O)C(=O)O)cc(C)c1Oc1ccc(O)c(C(C)C)c1` the figure was 10 mg/kg; with `CCOC(=O)C(=O)Nc1cc(C)c(Oc2ccc(O)c(C(O)c3ccc(F)cc3)c2)c(C)c1` (stereo in doubt; 23a) [AXITIROME], over 25 mg/kg; with `N[C@@H](Cc1cc(I)c(Oc2ccc(O)c(I)c2)c(I)c1)C(=O)O` [LIOTHYRONINE], under 0.025 mg/kg.

For a further experiment, the system named is Rattus norvegicus. Briefly: Percent change in serum LDL level was determined in hypercholesterolemic rats at 100 ug/Kg upon peroral administration. The format is functional.
Settings: not given
Turning to `N[C@@H](Cc1cc(I)c(Oc2ccc(O)c(I)c2)c(I)c1)C(=O)O` [LIOTHYRONINE], the Change is reported as -65%.

The subject of another experiment is Rattus norvegicus. The experiment in a line: Percent change in serum LDL level was determined in hypercholesterolemic rats at 10 ug/Kg upon peroral administration. The experiment is classed as functional.
Settings: not given
In the case of `CCOC(=O)C(=O)Nc1cc(C)c(Oc2ccc(O)c(C(O)c3ccc(F)cc3)c2)c(C)c1` (stereo in doubt; 23a) [AXITIROME], the Change is -73%.
